Entries after “also recorded” stand apart in the source; their conditions may differ. Read-outs that look alike come from different tables or passages of the source.
Assays:
[1] = test system: splenocytes of HLA-A24 (A*2402) transgenic mice; assay type: cell-based; design: key to A24: average IFN-γ spots forming cells per million splenocytes: — represents no positive ELISpot response
[2] = test system: splenocytes of HLA-B7 (B*0702) transgenic mice; assay type: cell-based; design: key to B7: average IFN-γ spots forming cells per million splenocytes: — represents no positive ELISpot response
[3] = test system: splenocytes of HLA-DR2 (DRB1*1501) transgenic mice; assay type: cell-based; design: key to DR2: average IFN-γ spots forming cells per million splenocytes: — represents no positive ELISpot response
[4] = test system: splenocytes of HLA-DR3 (DRB1*0301) transgenic mice; assay type: cell-based; design: key to DR3: average IFN-γ spots forming cells per million splenocytes: — represents no positive ELISpot response
[5] = test system: splenocytes of HLA-DR4 (DRB1*0401) transgenic mice; assay type: cell-based; design: key: — represents no positive ELISpot response
[6] = test system: HLA-A2, -A24, -B7, -DR2, -DR3 and -DR4 transgenic mice; assay type: cell-based
HLA alleles = details: epitopes extracted from the IEDB, humans infected with influenza A, cited from earlier work

Sequence	A24: average IFN-γ spots forming cells per million splenocytes [1]	B7: average IFN-γ spots forming cells per million splenocytes [2]	DR2: average IFN-γ spots forming cells per million splenocytes [3]	DR2: lowest concentration of peptide giving positive ELISpot response in peptide titration [3]	DR3: average IFN-γ spots forming cells per million splenocytes [4]	DR3: lowest concentration of peptide giving positive ELISpot response in peptide titration [4]	DR4: average IFN-γ spots forming cells per million splenocytes [5]	HLA allele this work (HLA restriction by ELISpot) [6]	Published HLA alleles (reported human T cell epitopes) (HLA alleles; listed as M1 169-185)	Published HLA alleles (reported human T cell epitopes) (HLA alleles; listed as NP 402-418)	Published HLA alleles (reported human T cell epitopes) (HLA alleles)
TNPLIRHENRMVLASTT	—	—	56 ± 5(0.1) IFN-γ spots forming cells per million splenocytes	56 ± 5(0.1) μg/ml	120 ± 4(0.1) IFN-γ spots forming cells per million splenocytes	120 ± 4(0.1) μg/ml	—	DR2, DR3	B39, DR2, DRB1*0103,; also recorded: DRB1*1101,; also recorded: DRB1*0701, DRB5*0101		
SAGQISTQPTFSVQRNL	—	—	207 ± 3(0.1) IFN-γ spots forming cells per million splenocytes	207 ± 3(0.1) μg/ml	—		—	DR2		DRB1*0101,; also recorded: DRB1*0404	
ERRNKYLEEHPSAGKDP	—	—	—		—		121 ± 1(0.1) IFN-γ spots forming cells per million splenocytes	DR4			DR1, DRB1*0101
